In brackets after ≈: the same amount, converted by molar mass.
How the values were obtained:
[1] = molecular target: T1, Na^+/H^+-Exchangers von Kaninchenerythrocyten (Oryctolagus cuniculus, UniProt P23791); test: Inhibition of the Na+/H+ exchanger of rabbit erythrocytes (amiloride-sensitive Na+ influx, flame photometry); format: cell-based, Kaninchen; conditions: Inhibition des Na^+/H^+-Exchangers; erythrocytes of cholesterol-fed rabbits, hyperosmolar salt-sucrose medium, pH 7,4, 37°C
T1 construct: den Na^+-Influx in die Erythrocyten via Na^+/H^+-Austausch flammenphotometrisch bestimmen zu können; endogenous in cells; host or cells: erythrocytes in whole blood from the ear arteries of New Zealand White rabbits
Description: Inhibition des Na^+/H^+-Exchangers von Kaninchenerythrocyten
Weiße Neuseeland-Kaninchen (Ivanovas) erhielten eine Standard-Diät mit 2 % Cholesterin für sechs Wochen, um den Na^+/H^+-Austausch zu aktivieren und so den Na^+-Influx in die Erythrocyten via Na^+/H^+-Austausch flammenphotometrisch bestimmen zu können. Das Blut wurde den Ohrarterien entnommen und durch 25 IE Kalium-Heparin ungerinnbar gemacht. Ein Teil jeder Probe wurde zur Doppelbestimmung des Hämatokrits durch Zentrifugieren benutzt. Aliquots von jeweils 100 µl dienten zur Messung des Na^+-Ausgangsgehalts der Erythrocyten.
Um den Amilorid-sensitiven Natrium-lnflux zu bestimmen, wurden 100 µl jeder Blutprobe in jeweils 5 ml eines hyperosmolaren Salz-Sucrose-Mediums (mmol/l: 140 NaCl, 3 KCI, 150 Sucrose, 0,1 Ouabain, 20 Tris-hydroxymethyl-aminomethan) bei pH 7,4 und 37°C inkubiert. Die Erythrocyten wurden danach dreimal mit eiskalter MgCl2-Ouabain-Lösung (mmol/l: 112 MgCl2, 0,1 Ouabain) gewaschen und in 2,0 ml destilliertem Wasser hämolysiert. Der intrazelluläre Natriumgehalt wurde flammenphotometrisch bestimmt.
Der Na^+-Nettoinflux wurde aus der Differenz zwischen Natrium-Ausgangswerten und dem Natriumgehalt der Erythrocyten nach Inkubation errechnet. Der Amiloridhemmbare Natrium-lnflux ergab sich aus der Differenz des Natriumgehalts der Erythrocyten nach Inkubation mit und ohne Amilorid 3 x 10-4 mol/l. Auf diese Weise wurde auch bei den erfindungsgemäßen Verbindungen verfahren.

[2] = tested on: Rattenherzen; conditions: isolated rat hearts; Eur. Heart J. 9 (suppl.1): 167 (1988); cited from earlier work
[3] = Water solubility; format: physicochemical; conditions: Dihydrochlorid, pH = 5.3, read-out: Wasserlöslichkeit

T1 sequence (P23791 whole entry): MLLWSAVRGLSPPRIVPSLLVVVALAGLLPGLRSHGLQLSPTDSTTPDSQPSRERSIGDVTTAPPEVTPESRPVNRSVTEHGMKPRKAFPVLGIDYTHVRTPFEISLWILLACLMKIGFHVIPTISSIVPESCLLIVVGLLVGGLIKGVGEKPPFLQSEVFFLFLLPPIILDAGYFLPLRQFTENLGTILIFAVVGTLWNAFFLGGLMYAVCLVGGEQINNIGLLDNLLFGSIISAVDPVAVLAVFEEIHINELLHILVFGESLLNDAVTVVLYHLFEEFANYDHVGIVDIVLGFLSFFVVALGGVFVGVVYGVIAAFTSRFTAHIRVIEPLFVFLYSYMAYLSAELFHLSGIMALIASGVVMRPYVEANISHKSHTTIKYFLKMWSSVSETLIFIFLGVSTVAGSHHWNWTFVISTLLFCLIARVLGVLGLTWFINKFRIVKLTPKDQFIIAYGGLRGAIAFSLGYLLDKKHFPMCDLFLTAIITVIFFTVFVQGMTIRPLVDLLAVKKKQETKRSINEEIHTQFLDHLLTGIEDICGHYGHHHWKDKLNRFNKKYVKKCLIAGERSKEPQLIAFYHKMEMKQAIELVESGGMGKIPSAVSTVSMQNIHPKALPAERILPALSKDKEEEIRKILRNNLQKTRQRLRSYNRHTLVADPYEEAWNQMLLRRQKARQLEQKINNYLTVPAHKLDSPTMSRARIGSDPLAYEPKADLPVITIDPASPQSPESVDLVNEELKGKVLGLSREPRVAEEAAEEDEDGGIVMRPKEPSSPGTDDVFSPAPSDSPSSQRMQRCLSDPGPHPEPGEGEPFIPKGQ

Row | Molecule | IC50 [1] [µM] | other results
1 | 4-[4-(N-t-Butylimido-N'-t-butyl)sulfamoyl]-3-trifluormethyl-benzoylguanidin [Beispiel 2] | 0.32 | 
2 | NC(N)=NC(=O)c1nc(Cl)c(N)nc1N [Amilorid] |  | künstlich ausgelöstes Kammerflimmern [2]: völlig unterdrückt
3 | NC(N)=NC(=O)c1ccc(Oc2ccc(S(N)(=O)=O)cc2)c(C(F)(F)F)c1 [Beispiel 1, 4-(4-Aminosulfonyl)phenoxy-3-trifluormethyl-benzoylguanidin] | 0.8 | 
4 | CN(C)CCN(C)S(=O)(=O)c1ccc(Oc2ccc(C(=O)N=C(N)N)cc2C(F)(F)F)cc1 [Beispiel 3, 4-[4-N-(Dimethylaminoethyl)-methylsulfamoyl]phenoxy-3-trifluormethylbenzoylguanidin] | 0.05 | 
5 | CN1CCN(S(=O)(=O)c2ccc(Oc3ccc(C(=O)N=C(N)N)cc3C(F)(F)F)cc2)CC1 [Beispiel 4, 4-[4-(4-Methylpiperazinosulfonyl)phenoxy]-3-trifluormethylbenzoylguanidin] | 0.082 | 
6 | NC(N)=NC(=O)c1ccc(Oc2ccc(S(=O)(=O)NCCN3CCCC3)cc2)c(C(F)(F)F)c1 [Beispiel 5, 4-[4-(2-Pyrolidinethylaminosulfonyl)phenoxy]-3-trifluormethylbenzoylguanidin] | 0.3 | 
7 | NC(N)=NC(=O)c1ccc(Oc2ccc(S(=O)(=O)NCCN3CCCCC3)cc2)c(C(F)(F)F)c1 [Beispiel 6, 4-[4-(2-Piperidinethylaminosulfonyl)phenoxy]-3-trifluormethylbenzoylguanidin] | 0.1 | 
8 | CN(C)CCCNS(=O)(=O)c1ccc(Oc2ccc(C(=O)N=C(N)N)cc2C(F)(F)F)cc1 [Beispiel 7, 4-[4-(N-Dimethylamino-n-propyl)sulfamoyl]phenoxy-3-trifluormethylbenzoylguanidin] | 0.06 | 
9 | CN(C)CCNS(=O)(=O)c1ccc(Oc2ccc(C(=O)N=C(N)N)cc2C(F)(F)F)cc1 [Beispiel 8, 4-[4-(N-Dimethylaminoethyl)sulfamoyl]phenoxy-3-trifluormethylbenzoylguanidin] | 0.005 | 
10 | N=S(N)(=O)c1ccc(Oc2ccc(C(=O)N=C(N)N)cc2C(F)(F)F)cc1 (stereo not shown) [Beispiel 9, 4-(4-lmidamidosulfonyl)phenoxy-3-trifluormethyl-benzoylguanidin] | 0.1 | 
11 | CN(C)CCc1ccc(Oc2ccc(C(=O)N=C(N)N)cc2S(C)(=O)=O)cc1 [Beispiel 14, 3-Methylsulfonyl-[4-(2-dimethylaminoethyl)phenoxy]benzoyl-guanidin] | 0.05 | 
12 | CN(C)CCSCc1ccc(Oc2ccc(C(=O)N=C(N)N)cc2S(C)(=O)=O)cc1 [Beispiel 15, 4-[4-(2-Dimethylaminoethyl)thiomethyl-phenoxy]-3-methylsulfonylbenzoyl-guanidin] | 0.01 | 
13 | CN(C)CCSc1ccc(Oc2ccc(C(=O)N=C(N)N)cc2S(C)(=O)=O)cc1 [Beispiel 16, 4-[4-(2-Dimethylaminoethylthio)phenoxy]-3-methylsulfonylbenzoylguanidin] | 0.16 | 
14 | CN(C)CCS(=O)(=O)c1ccc(Oc2ccc(C(=O)N=C(N)N)cc2S(C)(=O)=O)cc1 [Beispiel 17, 4-[4-(2-Dimethylaminoethylsulfonyl)phenoxy]-3-methylsulfonylbenzoylguanidin] | 1 | 
15 | CS(=O)(=O)c1cc(C(=O)N=C(N)N)ccc1Oc1ccc(C(=O)N=C(N)N)cc1 [Beispiel 18, 4-[(4-Guanidinocarbonyl)phenoxy]-3-methylsulfonylbenzoylguanidin] | 0.2 | 
16 | CN(C)CCSCc1ccc(Oc2ccc(C(=O)N=C(N)N)cc2C(F)(F)F)cc1 [Beispiel 19, 4-[4-(2-Dimethylaminoethyl)thiomethyl-phenoxy]-3-trifluormethylbenzoylguanidin] | 0.008 | 
17 | CN(C)CCSc1ccc(Oc2ccc(C(=O)N=C(N)N)cc2C(F)(F)F)cc1 [Beispiel 20, 4-[4-(2-Dimethylaminoethylthio)phenoxy]-3-trifluormethylbenzoylguanidin] | 0.04 | 
18 | CN(C)CCc1ccc(Oc2ccc(C(=O)N=C(N)N)cc2C(F)(F)F)cc1 [Beispiel 21, 3-Trifluormethyl-4-[4-(2-dimethylaminoethyl)phenoxy]benzoyl-guanidin] | 0.014 | solubility [3]: 49 mg/mL (≈ 124 mM)
19 | CN=C(NC)SCC(=O)c1ccc(Oc2ccc(C(=O)N=C(N)N)cc2S(C)(=O)=O)cc1 [Beispiel 28, 4-[4-(N,N'-Dimethyl-S-isothiuronyl-acetyl)phenoxy]-3-methylsulfonylbenzoylguanidin] | 0.12 | 
20 | CS(=O)(=O)c1cc(C(=O)N=C(N)N)ccc1Oc1ccc(C(O)Cn2ccnc2)cc1 (stereo not shown) [Beispiel 32, 4-[4-(2-N-lmidazolyl-1-hydroxyethyl)phenoxy]-3-methylsulfonylbenzoylguanidin] | 0.44 | 
21 | CS(=O)(=O)c1cc(C(=O)N=C(N)N)ccc1Oc1ccc(S(N)(=O)=O)cc1 [Beispiel 33, 3-Methylsulfonyl-4-(4-sulfamoylphenoxy)benzoylguanidin] | 0.2 | 
22 | CN(C)CCS(=O)(=O)Cc1ccc(Oc2ccc(C(=O)N=C(N)N)cc2S(C)(=O)=O)cc1 [Beispiel 46, 4-[4-(2-Dimethylaminoethyl)sulfonylmethyl-phenoxy]-3-methylsulfonylbenzoyl-guanidin] | 0.09 | 
23 | CN(C)CCS(=O)(=O)Cc1ccc(Oc2ccc(C(=O)N=C(N)N)cc2C(F)(F)F)cc1 [Beispiel 47, 4-[4-(2-Dimethylaminoethyl)sulfonylmethyl-phenoxy]-3-trifluormethylbenzoyl-guanidin] | 0.07 | 
24 | CCN(c1nc(N)c(C(=O)N=C(N)N)nc1Cl)C(C)C [Ethylisopropylamilorid] |  | künstlich ausgelöstes Kammerflimmern [2]: Noch potenter als Amilorid

Reference: EP0723956B1, “Basically substituted benzoylguanidines, process for their preparation, their use as medicaments or diagnostics as well as medicaments containing them” (HOECHST AKTIENGESELLSCHAFT, priority 1995, dated 1996)
